Source: ChEMBL document CHEMBL1201862, “PubChem BioAssay data set” (2004)
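1) Cells in 96-well plates. 2) Compound, 48 h, 5 concentrations. 3) Linear interpolation between surrounding doses. 4) Unreached endpoint = highest concentration. GI50 marks 50% less growth.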 The source made the active and inactive calls. No stated cut-off is given here; in the data, active = GI50 up to about 1.1 µM and inactive = higher.

What was measured:
Experiment in all cases: inhibition of tumour cell growth, NCI panel, 48 h
[1] = test system: A549
[2] = test system: K562
[3] = test system: SN12C
[4] = test system: SF-268
[5] = test system: HCC 2998
[6] = test system: IGROV-1
[7] = test system: Malme-3M
[8] = test system: SK-OV-3
[9] = test system: SR
[10] = test system: M14
[11] = test system: MOLT-4
[12] = test system: COLO 205
[13] = test system: NCI-H522
[14] = test system: OVCAR-5
[15] = test system: NCI-H23
[16] = test system: UO-31
[17] = test system: HL-60
[18] = test system: OVCAR-4
[19] = test system: NCI-H460
[20] = test system: SF-539
[21] = test system: M19-MEL
[22] = test system: HCT-116
[23] = test system: SW-620
[24] = test system: RPMI-8226
[25] = test system: SK-MEL-28
[26] = test system: A498
[27] = test system: UACC-257
[28] = test system: HT-29
[29] = test system: SNB-19
[30] = test system: SK-MEL-5
[31] = test system: TK-10
[32] = test system: SK-MEL-2
[33] = test system: KM12
[34] = test system: OVCAR-3
[35] = test system: ACHN
[36] = test system: EKVX
[37] = test system: CAKI-1
[38] = test system: HOP-92
[39] = test system: HOP-62
[40] = test system: UACC-62
[41] = test system: CCRF-CEM
[42] = test system: RXF 393
[43] = test system: DMS-114
[44] = test system: 786-0
[45] = test system: SF-295
[46] = test system: OVCAR-8
[47] = test system: KM-20L2
[48] = test system: MDA-MB-231
[49] = test system: DU-145
[50] = test system: NCI/ADR-RES
[51] = test system: HCT-15
[52] = test system: U-251
[53] = test system: SNB-75
[54] = test system: NCI-H226
[55] = test system: T47D
[56] = test system: Hs-578T
[57] = test system: MDA-N
[58] = test system: MDA-MB-435
[59] = test system: LOX IMVI
[60] = test system: MCF7
[61] = test system: BT-549
[62] = test system: PC-3

Question: With O=[N+]([O-])c1ccc2nc(/C(=N/Nc3ccccc3)C(O)c3ccc(C(O)/C(=N\Nc4ccccc4)c4nc5ccc([N+](=O)[O-])cc5nc4O)cc3)cnc2c1 (stereo unspecified) as the molecule, how does the GI50 [1] read?
Answer: 48.5 µM (inactive)

Question: What about the GI50 [2] of the same molecule?
Answer: 13.6 µM (inactive)

Question: And the GI50 [3]?
Answer: 44.1 µM (inactive)

Question: And the GI50 [4]?
Answer: > 100 µM (inactive)

Question: What about the GI50 [5] of the same molecule?
Answer: 29.1 µM (inactive)

Question: And the GI50 [6]?
Answer: > 100 µM (inactive)

Question: And the GI50 [7]?
Answer: > 100 µM (inactive)

Question: What about the GI50 [8] of the same molecule?
Answer: > 100 µM (inactive)

Question: What about the GI50 [9] of the same molecule?
Answer: 33.7 µM (inactive)

Question: And the GI50 [10]?
Answer: 40.3 µM (inactive)

Question: And the GI50 [11]?
Answer: 75.3 µM (inactive)

Question: And the GI50 [12]?
Answer: > 100 µM (inactive)

Question: And the GI50 [13]?
Answer: 5.64 µM (inactive)

Question: What about the GI50 [14] of the same molecule?
Answer: 31.4 µM (inactive)

Question: What about the GI50 [15] of the same molecule?
Answer: > 100 µM (inactive)

Question: And the GI50 [16]?
Answer: 23 µM (inactive)

Question: What about the GI50 [17] of the same molecule?
Answer: 19.3 µM (inactive)

Question: What about the GI50 [18] of the same molecule?
Answer: > 100 µM (inactive)

Question: What about the GI50 [19] of the same molecule?
Answer: 18.1 µM (inactive)

Question: And the GI50 [20]?
Answer: 55.1 µM (inactive)

Question: And the GI50 [21]?
Answer: 58.9 µM (inactive)

Question: What about the GI50 [22] of the same molecule?
Answer: 55.5 µM (inactive)

Question: What about the GI50 [23] of the same molecule?
Answer: > 100 µM (inactive)

Question: And the GI50 [24]?
Answer: 19.4 µM (inactive)

Question: And the GI50 [25]?
Answer: > 100 µM (inactive)

Question: What about the GI50 [26] of the same molecule?
Answer: 32.1 µM (inactive)

Question: What about the GI50 [27] of the same molecule?
Answer: > 100 µM (inactive)

Question: And the GI50 [28]?
Answer: > 100 µM (inactive)

Question: What about the GI50 [29] of the same molecule?
Answer: > 100 µM (inactive)

Question: What about the GI50 [30] of the same molecule?
Answer: 24.8 µM (inactive)

Question: What about the GI50 [31] of the same molecule?
Answer: > 100 µM (inactive)

Question: What about the GI50 [32] of the same molecule?
Answer: 43.8 µM (inactive)

Question: What about the GI50 [33] of the same molecule?
Answer: 37.1 µM (inactive)

Question: And the GI50 [34]?
Answer: > 100 µM (inactive)

Question: What about the GI50 [35] of the same molecule?
Answer: 18 µM (inactive)

Question: What about the GI50 [36] of the same molecule?
Answer: > 100 µM (inactive)

Question: And the GI50 [37]?
Answer: 60.4 µM (inactive)

Question: And the GI50 [38]?
Answer: > 100 µM (inactive)

Question: And the GI50 [39]?
Answer: 28.5 µM (inactive)

Question: What about the GI50 [40] of the same molecule?
Answer: 36 µM (inactive)

Question: What about the GI50 [41] of the same molecule?
Answer: 39.6 µM (inactive)

Question: And the GI50 [42]?
Answer: > 100 µM (inactive)

Question: And the GI50 [43]?
Answer: 11.2 µM (inactive)

Question: What about the GI50 [44] of the same molecule?
Answer: > 100 µM (inactive)

Question: What about the GI50 [45] of the same molecule?
Answer: > 100 µM (inactive)

Question: What about the GI50 [46] of the same molecule?
Answer: > 100 µM (inactive)

Question: And the GI50 [47]?
Answer: 11.5 µM (inactive)

Question: Which results are given for O=C(c1ccccc1)c1cc[n+](C2=C([N-]S(=O)(=O)c3ccccc3)C(=O)c3ccccc3C2=O)cc1?
Answer: GI50 [1]: 14.5 µM (inactive); GI50 [2]: 2.65 µM (inactive); GI50 [3]: 6.85 µM (inactive); GI50 [4]: 11.5 µM (inactive); GI50 [5]: 11.4 µM (inactive); GI50 [6]: 9.35 µM (inactive); GI50 [7]: 4.34 µM (inactive); GI50 [8]: 15.4 µM (inactive); GI50 [9]: 3.08 µM (inactive); GI50 [10]: 11.1 µM (inactive); GI50 [11]: 3.05 µM (inactive); GI50 [12]: 13.7 µM (inactive); GI50 [48]: 12.9 µM (inactive); GI50 [49]: 13.9 µM (inactive); GI50 [13]: 4.74 µM (inactive); GI50 [14]: 19.2 µM (inactive); GI50 [15]: 3.12 µM (inactive); GI50 [16]: 11.7 µM (inactive); GI50 [17]: 2.15 µM (inactive); GI50 [18]: 13.1 µM (inactive); GI50 [19]: 13.5 µM (inactive); GI50 [50]: 9.38 µM (inactive); GI50 [20]: 12.9 µM (inactive); GI50 [51]: 14.4 µM; GI50 [52]: 4.38 µM (inactive); GI50 [22]: 11.3 µM (inactive); GI50 [23]: 10 µM (inactive); GI50 [53]: 11.6 µM (inactive); GI50 [24]: 3.3 µM (inactive); GI50 [25]: 3.22 µM (inactive); GI50 [26]: 18.1 µM (inactive); GI50 [27]: 11.6 µM (inactive); GI50 [54]: 15.8 µM (inactive); GI50 [28]: 14.4 µM (inactive); GI50 [29]: 13.8 µM (inactive); GI50 [30]: 2.01 µM (inactive); GI50 [31]: 18.3 µM (inactive); GI50 [32]: 3 µM (inactive); GI50 [33]: 12.6 µM (inactive); GI50 [34]: 3.1 µM (inactive); GI50 [55]: 3.33 µM (inactive); GI50 [35]: 12.7 µM (inactive); GI50 [56]: 3.66 µM (inactive); GI50 [36]: 14 µM (inactive); GI50 [37]: 2.36 µM (inactive); GI50 [38]: 8.61 µM (inactive); GI50 [57]: 1.86 µM (inactive); GI50 [39]: 10.6 µM (inactive); GI50 [58]: 1.72 µM (inactive); GI50 [40]: 1.88 µM (inactive); GI50 [41]: 2.1 µM (inactive); GI50 [59]: 2.42 µM (inactive); GI50 [60]: 8.79 µM (inactive); GI50 [42]: 12.4 µM (inactive); GI50 [44]: 7.13 µM (inactive); GI50 [61]: 6.76 µM (inactive); GI50 [45]: 11.8 µM (inactive); GI50 [46]: 13 µM (inactive); GI50 [62]: 11.1 µM (inactive)
